Measured values published in US9248131B2, “Aquaporin modulators and methods of using them for the treatment of edema and fluid imbalance” (THE ARIZONA BOARD OF REGENTS ON BEHALF OF THE UNIVERSITY OF …, priority 2006, dated 2016).

What was measured:
[1] = biological target: T1, AQP1 (Homo sapiens, UniProt P29972); assay: Oocyte swelling assay: water permeability (Pf) of AQP1-expressing oocytes, block or % stimulation; format: cell-based; parameters: expressed in transfected cells; host or cells: Xenopus oocytes; conditions: for AQP-1 effect (in words): given extracellularly
T1 sequence (P29972 1-269): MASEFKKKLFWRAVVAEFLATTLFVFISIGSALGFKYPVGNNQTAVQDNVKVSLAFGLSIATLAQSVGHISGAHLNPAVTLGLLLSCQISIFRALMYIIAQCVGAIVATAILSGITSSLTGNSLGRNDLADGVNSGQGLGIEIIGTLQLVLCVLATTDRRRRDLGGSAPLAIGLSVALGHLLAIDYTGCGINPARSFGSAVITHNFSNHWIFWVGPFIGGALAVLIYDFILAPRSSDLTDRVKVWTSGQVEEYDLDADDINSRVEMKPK
Description: (§1) A method for screening compounds for their ability to modulate aquaporin activity based on a water permeability assay in Xenopus oocytes expressing aquaporins which is used to identify, assess, and characterize compounds that either block or stimulate the aquaporin channels including AQP1, AQP4 and AQP9 channels.
(§2) Selection rationale and methodology. The ability of compounds, analogs and/or agents to block an aquaporin channel was quantified by videomicroscopic analyses of cross-sectional area of AQP-expressing oocytes as a function of time in a defined osmotic gradient, allowing the calculation of the water permeability factor (Pf), statistical evaluation of significant differences in the rate of water entry, and definition of dose response curves with IC50 values (concentration required for half-maximal block).
(§3) This compound evaluation method has been utilized with AQP1,-4,-5, and -9 channels. Observations of channel stimulation were made using the same assay method, however, the results were reported as % stimulation over control at a given concentration. […] TEA is known as a blocker of K^+ channel subtypes and nicotinic acetylcholine receptors. TEA sensitivity of AQP1 was removed by site-directed mutagenesis of tyrosine 186 to phenylalanine (Y186F) in the outer vestibule of the water pore, and confirmed that the inhibitory action of TEA is not due to nonspecific effects on endogenous channels (Brooks et al., 2000).

[2] = biological target: T2, AQP4 (Homo sapiens, UniProt P55087); assay: Oocyte swelling assay: water permeability (Pf) of AQP4-expressing oocytes by videomicroscopy, block or % stimulation; format: cell-based
T2 construct: expressed in transfected cells; host or cells: Xenopus oocytes
T2 sequence (P55087 whole entry, species assumed): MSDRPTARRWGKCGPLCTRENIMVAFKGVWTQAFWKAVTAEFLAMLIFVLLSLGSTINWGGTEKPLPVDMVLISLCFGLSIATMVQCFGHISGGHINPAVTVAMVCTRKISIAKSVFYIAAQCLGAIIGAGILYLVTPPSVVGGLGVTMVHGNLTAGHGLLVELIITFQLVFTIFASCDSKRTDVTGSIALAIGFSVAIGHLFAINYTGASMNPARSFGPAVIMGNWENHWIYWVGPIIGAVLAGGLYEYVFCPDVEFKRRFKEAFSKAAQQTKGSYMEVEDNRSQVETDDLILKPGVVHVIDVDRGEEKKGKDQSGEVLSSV
Description: as §1, §2, §3

[3] = system: Na—K—Cl cotransporter (NKCC1); conditions: perfused kidney ascending loops of Henle; read-out: IC50 against Na—K—Cl cotransporter; cited from earlier work
[4] = biological target: T3, AQP4-expressing oocytes (Homo sapiens, UniProt P55087); assay: Simple screen: time to oocyte bursting in hypotonic saline; format: cell-based; conditions: AQP4-expressing oocytes; concentration not given
T3 construct: expressed in transfected cells; host or cells: Xenopus oocytes
T3 sequence (P55087 whole entry, species assumed): as above
Protocol: The composition of the library for initial AQP channel screening included various channel, transporter and receptor blocking compounds based on intuition and from clues regarding clinical side effects that involved water transporting tissues. In a simple screen (FIG. 1), control and AQP4-expressing oocytes were preincubated in isotonic saline (100 mM NaCl; 5 mM MgCl2; 5 mM HEPES, pH 7.3; ˜200 mOsm) containing the test compound for 10-15 min before each experiment; then the time to oocyte bursting (physical explosion) after transfer to 100 mOsm saline was monitored visually. […] Block was evident in the increased time required for bursting in hypotonic saline.

[5] = biological target: T1, AQP1; conditions: AQP1 expressed in oocytes (Brooks et al., 2000); cited from earlier work
[6] = ↓ block, ↑ stimulation, ═ no effect, symbols not defined in the table
[7] = ↓ block, ↑ activation, ═ no effect, symbols not defined in the table

## C=CCNS(=O)(=O)c1cc(C(=O)OC)c(NCc2ccco2)cc1Cl [drawing 119]
[1]; arrow symbols, key not given
  AQP-1 effect (arrow symbol): ═
[2]; arrow symbols, key not given
  AQP-4 effect (arrow symbol): (↑)?
[2]; at 100 μM
  AQP-4 effect (in words): No significant Antagonist Effect

## Cc1cccc(Nc2ccncc2S(=O)(=O)NC(=O)NC(C)C)c1 [torsemide, reference compound]
[2]; concentrations up to 1 mM
  block of swelling in AQP4-expressing oocytes: no blocking effect
[3]
  IC50: 300 nM

## NS(=O)(=O)c1cc(C(=O)O)c(Cl)cc1NCc1ccccc1
[2]; at 100 μM
  AQP-4 effect (in words): p > 0.05 No significant Antagonist Effect at 100 μM

## CCCCNc1cc(C(=O)N2CCOCC2)cc(S(N)(=O)=O)c1Oc1ccccc1 [drawing 100]
[2]; at 10 μM
  AQP-4 effect: % activation: 70% Activation at 10 μM

## CCCCNc1c(Oc2ccccc2)cc(S(=O)(=O)NC)cc1C(=O)OC
[2]; at 10 μM extracellularly
  AQP-4 effect: % block: −40%
[2]; relative to bumetanide
  AQP-4 effect: comparison with bumetanide (in words): Improved potency over bumetanide

## CCCCNc1cc(C(=O)NCc2cccnc2)cc(S(N)(=O)=O)c1Oc1ccccc1
[2]; at 10 μM
  AQP-4 effect: % block: 50% block at 10 μM

## [Cl][Hg][Cl] [HgCl2]
[4]
  time to oocyte bursting: no effect

## CCCCNc1cc(C(=O)Nc2ccccn2)cc(S(N)(=O)=O)c1Oc1ccccc1
[2]; at 10 μM
  AQP-4 effect (in words): No Significant effect at 10 μM

## NS(=O)(=O)c1cc(C(=O)O)c(NCc2ccco2)cc1NCc1ccco1 [AQP-0033]
[1]
  AQP-1 effect (in words): No significant effect
[1]; [6]
  AQP-1 effect (arrow symbol): ═
[2]; 100 μM, route not stated
  AQP-4 effect: % agonist effect: −25%
[2]; [7]
  AQP-4 effect (arrow symbol): ↑

## CNS(=O)(=O)c1cc(C(=O)OC)c(NCc2ccco2)cc1Cl [drawing 115]
[1]; arrow symbols, key not given
  AQP-1 effect (arrow symbol): ↓↓
[2]; arrow symbols, key not given
  AQP-4 effect (arrow symbol): ↑
[2]; at 100 μM
  AQP-4 effect (in words): Significant Agonist Effect

## CNS(=O)(=O)c1cc(C(=O)O)c(NCc2ccco2)cc1Cl
[1]; arrow symbols, key not given
  AQP-1 effect (arrow symbol): ↑
[2]; arrow symbols, key not given
  AQP-4 effect (arrow symbol): (↑)?

## O=C(O)c1cc(S(=O)(=O)NCc2ccccc2)c(Cl)cc1NCc1ccco1
[1]; arrow symbols, key not given
  AQP-1 effect (arrow symbol): ↓
[2]; arrow symbols, key not given
  AQP-4 effect (arrow symbol): ═

## CCCCNc1cc(C(=O)N2CCOCC2)cc(S(N)(=O)=O)c1Oc1ccccc1 [AQP-0006]
[2]; 10 μM given extracellularly
  AQP-4 effect: % activation: 70%
[2]; [7]
  AQP-4 effect (arrow symbol): ↑

## C=CCNS(=O)(=O)c1cc(C(=O)O)c(NCc2ccco2)cc1Cl
[1]; arrow symbols, key not given
  AQP-1 effect (arrow symbol): ═
[2]; arrow symbols, key not given
  AQP-4 effect (arrow symbol): ↑↑
[2]; at 100 μM
  AQP-4 effect (in words): Significant Agonist Effect

## COC(=O)c1cc(S(N)(=O)=O)c(Cl)cc1NCc1ccco1 [AQP-0022, Furosemide methyl ester]
[1]; [6]
  AQP-1 effect (arrow symbol): ↓↓
[2]; 100 μM extracellularly
  AQP-4 effect (in words): No significant effect
[2]; [7]
  AQP-4 effect (arrow symbol): ═

## CNS(=O)(=O)c1cc(C(=O)OC)c(NCc2ccco2)cc1Cl [AQP-0023, Furosemide methyl ester monomethyl sulfonamide]
[1]; [6]
  AQP-1 effect (arrow symbol): ↓↓
[2]; 100 μM given extracellularly
  AQP-4 effect: % agonist effect / agonist trend: −20%
[2]; [7]
  AQP-4 effect (arrow symbol): ↑

## CC[N+](CC)(CC)CC [tetraethylammonium (TEA), tetraethylammonium]
[5]
  water flux through AQP1 channels: blocks water flux

## CCCCNc1cc(C(=O)N2CCN(C)CC2)cc(S(N)(=O)=O)c1Oc1ccccc1
[2]; at 10 μM
  AQP-4 effect (in words): No Significant effect at 10 μM

## COC(=O)c1cc(S(=O)(=O)NCc2ccccc2)c(Cl)cc1NCc1ccco1
[1]; arrow symbols, key not given
  AQP-1 effect (arrow symbol): ═
[2]; arrow symbols, key not given
  AQP-4 effect (arrow symbol): ↑
[2]; at 100 μM
  AQP-4 effect (in words): Significant Agonist Effect

## C=CCNS(=O)(=O)c1cc(C(=O)OC)c(NCc2ccco2)cc1Cl [AQP-0027]
[1]
  AQP-1 effect (in words): No significant effect
[1]; [6]
  AQP-1 effect (arrow symbol): ═
[2]; 100 μM, route not stated
  AQP-4 effect: % block / antagonist trend: −25%
[2]; [7]
  AQP-4 effect (arrow symbol): (↓)?

## CCCCNc1cc(C(=O)NCc2ccccn2)cc(S(N)(=O)=O)c1Oc1ccccc1
[2]; at 10 μM
  AQP-4 effect (in words): No Significant effect at 10 μM
